From publication PMC5039586, “Biofilms from Klebsiella pneumoniae: Matrix Polysaccharide Structure and Interactions with Antimicrobial Peptides” (Microorganisms, 2016)
Ends that are not written are not given here.

What was measured:
KpTs113 [1] = assay: Peptide uptake by flow cytometry with Trypan Blue quenching; assay type: cell-based, Klebsiella pneumoniae; details: KpTs113, 0.25 µM peptide, 10 min, 37 °C, 1 mg/mL TB
Experimental: Flow cytometric assays were performed with a Cytomics FC 500 instrument (Beckman-Coulter, Inc., Fullerton, CA, USA) equipped with an argon laser (488 nm, 5 mW) and photomultiplier tube fluorescence detectors. Filtered light wavelength was set at 610 nm for Propidium Iodide (PI) (Sigma, Saint Louis, MO, USA) detection and at 525 nm for BODIPY (BY) detection. All detectors were set on logarithmic amplification. Optical and electronic noise were eliminated by setting an electronic gating threshold on the forward scattering detector, while the flow rate was kept at a data rate below 300 events/second to avoid cell coincidence. For each sample, at least 10,000 events were acquired and stored as list mode files. For the uptake evaluation, cultures of mid-log phase bacteria, diluted to 1 × 10^6 CFU/mL in MHB, were incubated at 37 °C for 10 min with 0.25 µM Bac7(1–35)-BY; after incubation, treated bacterial cells were washed three times in buffered high salt solution (10 mM sodium phosphate, 400 mM NaCl, 10 mM MgCl2, pH 7.2) in order to remove the fraction of peptide bound to the cell surfaces, and immediately analysed by the flow cytometer with or without a 10 min pre-incubation at room temperature with 1 mg/mL of the quencher Trypan Blue (TB).

KpTs109 = assay type: cell-based, Klebsiella pneumoniae; details: 24 h
Experimental: (§1) The bacterial inoculum was incubated overnight in MHB with shaking, then diluted 1:30 in fresh MHB and incubated with shaking for approximately 2 h to the mid-log phase, before resuspending to the appropriate dose, according to the optical density (OD). Minimum inhibitory concentration (MIC) determinations were carried out in MHB on mid-log phase bacteria (1–5 × 10^5 CFU/mL, CFU: colony-forming units) as previously described.

KpMn7 = assay type: cell-based, Klebsiella pneumoniae; details: 24 h
Experimental: as §1

KpTs12 = assay type: cell-based, Klebsiella pneumoniae; details: 24 h
Experimental: as §1

ATCC 700603 = assay type: cell-based, Klebsiella pneumoniae; details: ATCC 700603, 24 h
Experimental: as §1

KpTs101 [2] = assay type: cell-based, Klebsiella pneumoniae; details: 24 h
Experimental: as §1

KpTs107 = assay type: cell-based, Klebsiella pneumoniae; details: 24 h
Experimental: as §1

KpTs113 [3] = assay type: cell-based, Klebsiella pneumoniae; details: 24 h
Experimental: as §1

KpMn7 biofilm = details: 24 h
KpTs101 [4] = assay type: cell-based, Klebsiella pneumoniae; details: 24 h; remark: listed apart in the source
Experimental: (§2) Minimum inhibitory concentration (MIC) determinations were carried out in MHB on mid-log phase bacteria (1–5 × 10^5 CFU/mL, CFU: colony-forming units) as previously described. […] Data are reported in Table 2 (Ps column) together with MIC and BIC values from Table 1 for an easy comparison. […] To further investigate this protection mechanism, we then determined if the matrix polysaccharide interacted with the helical AMP BMAP-27 by monitoring its effect on peptide structure, using circular dichroism.

KpTs113 [5] = assay type: cell-based, Klebsiella pneumoniae; details: 24 h; remark: listed apart in the source
Experimental: as §2

KpTs12 biofilm = details: 24 h
KpTs107 biofilm = details: 24 h
KpTs101 biofilm = assay: Biofilm susceptibility assay (BIC), sessile cells on peg lids; assay type: cell-based, Klebsiella pneumoniae; details: sessile KpTs101, 24 h with peptide, then 6 h regrowth, OD590 < 0.05
ATCC 700603 biofilm = details: ATCC 700603, 24 h
KpTs109 biofilm = details: 24 h
KpTs113 biofilm = assay: Biofilm susceptibility assay (BIC), sessile cells on peg lids; assay type: cell-based, Klebsiella pneumoniae; details: sessile KpTs113, 24 h with peptide, then 6 h regrowth, OD590 < 0.05

Row | Substance | quenching of cell fluorescence by Trypan Blue (uptake) (KpTs113 [1]) | MIC (KpTs109) | MIC (KpMn7) | MIC (KpTs12) | MIC (ATCC 700603) | MIC (KpTs101 [2]) | MIC (KpTs107) | MIC (KpTs113 [3]) | BIC (biofilm inhibitory concentration) (KpMn7 biofilm) | Ps, MIC in the presence of matrix polysaccharide (KpTs101 [4]) | Ps, MIC in the presence of matrix polysaccharide (KpTs113 [5]) | BIC (biofilm inhibitory concentration) (KpTs12 biofilm) | BIC (biofilm inhibitory concentration) (KpTs107 biofilm) | BIC (biofilm inhibitory concentration) (KpTs101 biofilm) | BIC (biofilm inhibitory concentration) (ATCC 700603 biofilm) | BIC (biofilm inhibitory concentration) (KpTs109 biofilm) | BIC (biofilm inhibitory concentration) (KpTs113 biofilm)
1 | Bac7(1–35)-BY: BODIPY fluorescently labelled derivative of Bac7(1–35) (RRIRPRPPRLPRPRPRPLPFPRPGPRPIPRPLPFP; also: BODIPY label, position not given here; UniProt P19661 131-165, looked up, fragment) | < 10% | – | – | – | – | – | – | – | – | – | – | – | – | – | – | – | –
2 | GRFKRFRKKFKKLFKKLSPVIPLLHL-NH2 [BMAP-27] | – | 4 µM | 4 µM | 4 µM | 4 µM | 2 µM | 4 µM | 2 µM | 64 µM | 64 µM | 64 µM | 16 µM | >64 µM | >64 µM | 64 µM | 32 µM | >64 µM
3 | RRIRPRPPRLPRPRPRPLPFPRPGPRPIPRPLPFP [Bac7(1–35)] | – | 4 µM | 4 µM | 4 µM | 4 µM | 2 µM | 4 µM | 2 µM | 32 µM | 32 µM | 32 µM | 8 µM | 16 µM | 64 µM | 32 µM | 32 µM | 64 µM
